The values that follow come from patent US20230067910A1, “NOVEL COMPOUNDS FOR THE DIAGNOSIS, TREATMENT AND PREVENTION OF DISEASES ASSOCIATED WITH THE AGGREGATION OF ALPHA-SYNUCLEIN” (MODAG GMBH, priority 2019, published 2023).

Data set [1] in a line: In vivo biodistribution of [11C]-labeled compounds, small animal PET. The note with it: [11C]-labeled compound, intravenous tail vein, mice; for half-life: mouse, brain, read-out: Clearance half-life (brain). How it is done: [^11C]-labeled compound 1 and compound 2, respectively, were injected intravenously in the tail vein of mice. Mice were then imaged in a small animal PET instrument. For both compounds, a good blood-brain-barrier penetration with SUV values >1.5 was observed.

Another data set concerns the target T1, aggregated tau46 (Homo sapiens, UniProt P10636).
T1 construct: made in house; host or cells: E. coli
The experiment in a line: Saturation binding assay, protocol 2a, tau46 fibrils. The conditions noted are these: saturation assay protocol 2a, [3H]-labeled compound. How it is done:
(§1) Alpha-synuclein and tau46 were purified from E. coli according to established protocols (Nuscher B, et al., J. Biol. Chem., 2004; 279(21):21966-75), Aβ1-42 was obtained from rPeptide, Watkinsville, Ga., USA. Fibrils were prepared by aggregation of recombinant protein via constant agitation. In detail, 70 μM of alpha-synuclein mixed with 100 mM NaCl in 50 mM Tris, pH 7.0+0.02% NaN3 were incubated at 1,400 rpm, 37° C. for 96 h. 10 μM of tau46 were incubated with 0.03 mg/ml heparin in 50 mM Tris, pH=7.0 at 1,000 rpm, 37° C. for 72 h. Aβ1-42 was solved in 20 mM NaPi, pH=8.0+0.2 mM EDTA+0.02% NaN3 (Deeg A A, et al., Biochim. Biophys. Acta, 2015; 1850(9): 1884-90; Goedert M, et al. Nature, 1996; 383(6600): 550-3).
(§2) Sonicated αSYN (0.04 μM) or tau46 (0.4 μM) or Aβ1-42 (6 μM) fibrils diluted in PBS were incubated with decreasing concentrations of [^3H]-labeled compound (48 nM or 24 nM-[…]) in 50 mM Tris-base, 10% ethanol, 0.05% Tween20, pH 7.4. […]
(§3) Assay plates were incubated under agitation at 37° C. for 2 h, covered by plastic foil (Resealable tape, PerkinElmer, Waltham, Mass., USA). […] Accumulation of tritium was counted in a liquid scintillation counter (Wallac MicroBeta® TriLux, 1450 LSC & Luminescence Counter, PerkinElmer, Waltham, Mass., USA) immediately. Radioactivity was plotted against the increasing tritium-labeled compound or cold compound concentrations. […]

Data set [2] deals with T2, alpha-synuclein (sonicated fibrils) (Homo sapiens, UniProt P37840).
T2 construct: made in house; host or cells: E. coli
The data set can be described thus: Modified competition binding assay, protocol 3b, reference ligand [3H]-compound 1. The note with it: reference ligand [3H]-compound 1 (1 nM).

Data set [3] addresses T3, aggregated alpha-synuclein (Homo sapiens, UniProt P37840).
T3 construct: made in house; host or cells: E. coli
The experiment in a line: Modified saturation binding assay, protocol 2b, alpha-synuclein fibrils. The conditions noted are these: saturation assay protocol 2b, sonicated fibrils 15 nM/well. How it is done:
Alpha-synuclein and tau46 were purified from E. coli according to established protocols (Nuscher B, et al., J. Biol. Chem., 2004; 279(21):21966-75), Aβ1-42 was obtained from rPeptide, Watkinsville, Ga., USA. Fibrils were prepared by aggregation of recombinant protein via constant agitation. In detail, 70 μM of alpha-synuclein mixed with 100 mM NaCl in 50 mM Tris, pH 7.0+0.02% NaN3 were incubated at 1,400 rpm, 37° C. for 96 h. 10 μM of tau46 were incubated with 0.03 mg/ml heparin in 50 mM Tris, pH=7.0 at 1,000 rpm, 37° C. for 72 h. […]
For saturation binding assays, a fixed concentration of sonicated human recombinant αSYN (15 nM/well) or tau46 (250 nM/well) or Aβ1-42 (1 μM/well) fibrils diluted in phosphate buffered saline (PBS) were incubated in low binding plates (96 well micro test plate, Ratiolab GmbH, Dreieich, Germany) with [H]-compound 1 or [PH]-compound 2 at increasing concentrations (from 0.05 nM to 12 nM/24 nM) in 30 mM Tris HCl, 10% ethanol, 0.05% Tween20, pH 7.4 (hereafter referred to as incubation buffer) in a total volume of 200 μL/well. Non-specific binding of the radiotracer was determined by coincubation with 400 nM non-labeled compound 1 or compound 2. The optimal fibril concentrations were determined using a concentration determination assay. […]

In another data set the target is T4, aggregated Abeta (Homo sapiens, UniProt P05067).
T4 construct: Aβ1-42 was obtained from rPeptide; purchased rPeptide, Watkinsville, Ga., USA
The data set can be described thus: Saturation binding assay, protocol 2a, Abeta fibrils. The note with it: saturation assay protocol 2a, [3H]-labeled compound. The procedure: as §1, §2, §3

Like-named read-outs stand apart in the source and are kept apart here.

T4 sequence (P05067 672-713 limits assumed): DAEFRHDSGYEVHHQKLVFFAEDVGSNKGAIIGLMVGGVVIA
T1 sequence (P10636 1-412 isoform P10636-7): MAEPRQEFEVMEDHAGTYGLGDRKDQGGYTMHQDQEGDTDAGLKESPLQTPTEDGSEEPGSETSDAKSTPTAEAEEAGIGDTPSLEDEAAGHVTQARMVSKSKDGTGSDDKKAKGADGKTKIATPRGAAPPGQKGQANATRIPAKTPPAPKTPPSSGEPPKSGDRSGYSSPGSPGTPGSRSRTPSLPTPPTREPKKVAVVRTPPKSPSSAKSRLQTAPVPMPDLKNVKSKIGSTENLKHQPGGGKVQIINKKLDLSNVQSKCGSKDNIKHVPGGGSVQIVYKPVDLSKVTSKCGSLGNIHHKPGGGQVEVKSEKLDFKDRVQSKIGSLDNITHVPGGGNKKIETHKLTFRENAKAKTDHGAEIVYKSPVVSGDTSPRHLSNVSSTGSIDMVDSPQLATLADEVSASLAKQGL

For `CNc1ccc(-c2cc(-c3ccnc(Br)c3)[nH]n2)cc1` [Compound 2, 4-[5-(2-bromopyridin-4-yl)-1H-pyrazol-3-yl]-N-methylaniline], the “Washout from the brain” value in data set [1] is reported as “rapid washout from the brain”. In addition, in data set [1], the half-life was determined as 9 min. Further, the dissociation constant (Kd) is > 15 nM on aggregated tau46, 0.2 nM in data set [3] and > 100 nM on aggregated Abeta. The inhibitory constant (Ki) in data set [2] (Table 4b, read-out: Ki (nM) alpha-synuclein (sonicated fibrils)) is 0.3 nM.

Turning to `CN(C)c1ccc(-c2cc(-c3ccnc(Br)c3)[nH]n2)cc1` [Compound 1, 4-[3-(4-dimethylamino-phenyl)-1H-pyrazol-5-yl]-2-bromopyridine], the “Washout from the brain” value in data set [1] is listed as “rapid washout from the brain”. Besides, the half-life in data set [1] is 12 min. Also, the values for the dissociation constant Kd (on aggregated tau46; in data set [3]; at aggregated Abeta) were > 5 nM, 0.6 nM and > 100 nM, respectively. For the same compound, the inhibitory constant (Ki) in data set [2] (Table 6 comparison series, read-out: Ki (nM), sonicated alpha-synuclein fibrils) was 0.4 nM.

What is called half-life is how long it takes for the measured level to halve. Broadly, the Kd is the constant that tells how readily two partners part at equilibrium. A word on the Ki: it is a measure of affinity in units of concentration, obtained from inhibition or displacement.
